# Laboratory results from ChEMBL document CHEMBL1201862, “PubChem BioAssay data set” (2004).
# Calls of active or inactive are those of the source.
# Tests used:
# Activin receptor type-1 = Activin receptor type-1 (Homo sapiens, UniProt Q04771); assay: Navigating the Kinome. Panel member name: ACVR1; format: functional
# Bcl-2-related protein A1 = biological target: T1, Bcl-2-related protein A1 (Mus musculus, UniProt Q07440); format: functional;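 also: confirmatory dose–response counterscreen on Bfl-1, used to check hits from a UBC13 polyubiquitin inhibitor campaign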
# T1 sequence (Q07440 whole entry): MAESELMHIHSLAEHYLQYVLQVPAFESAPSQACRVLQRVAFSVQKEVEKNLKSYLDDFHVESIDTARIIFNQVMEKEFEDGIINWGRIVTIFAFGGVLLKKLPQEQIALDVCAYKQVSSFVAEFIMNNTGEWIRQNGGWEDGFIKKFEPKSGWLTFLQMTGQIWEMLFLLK
# [1] = microbe, parasite or virus in culture; format: functional; conditions: Mycobacterium tuberculosis
# Insulin-degrading enzyme [2] = biological target: T2, Insulin-degrading enzyme (Homo sapiens, UniProt P14735); assay: activators of recombinant IDE enzyme, dose response, counter-screen for IDE activator project, biochemical, fluorescence polarization (AID 588681)
# T2 sequence (P14735 whole entry): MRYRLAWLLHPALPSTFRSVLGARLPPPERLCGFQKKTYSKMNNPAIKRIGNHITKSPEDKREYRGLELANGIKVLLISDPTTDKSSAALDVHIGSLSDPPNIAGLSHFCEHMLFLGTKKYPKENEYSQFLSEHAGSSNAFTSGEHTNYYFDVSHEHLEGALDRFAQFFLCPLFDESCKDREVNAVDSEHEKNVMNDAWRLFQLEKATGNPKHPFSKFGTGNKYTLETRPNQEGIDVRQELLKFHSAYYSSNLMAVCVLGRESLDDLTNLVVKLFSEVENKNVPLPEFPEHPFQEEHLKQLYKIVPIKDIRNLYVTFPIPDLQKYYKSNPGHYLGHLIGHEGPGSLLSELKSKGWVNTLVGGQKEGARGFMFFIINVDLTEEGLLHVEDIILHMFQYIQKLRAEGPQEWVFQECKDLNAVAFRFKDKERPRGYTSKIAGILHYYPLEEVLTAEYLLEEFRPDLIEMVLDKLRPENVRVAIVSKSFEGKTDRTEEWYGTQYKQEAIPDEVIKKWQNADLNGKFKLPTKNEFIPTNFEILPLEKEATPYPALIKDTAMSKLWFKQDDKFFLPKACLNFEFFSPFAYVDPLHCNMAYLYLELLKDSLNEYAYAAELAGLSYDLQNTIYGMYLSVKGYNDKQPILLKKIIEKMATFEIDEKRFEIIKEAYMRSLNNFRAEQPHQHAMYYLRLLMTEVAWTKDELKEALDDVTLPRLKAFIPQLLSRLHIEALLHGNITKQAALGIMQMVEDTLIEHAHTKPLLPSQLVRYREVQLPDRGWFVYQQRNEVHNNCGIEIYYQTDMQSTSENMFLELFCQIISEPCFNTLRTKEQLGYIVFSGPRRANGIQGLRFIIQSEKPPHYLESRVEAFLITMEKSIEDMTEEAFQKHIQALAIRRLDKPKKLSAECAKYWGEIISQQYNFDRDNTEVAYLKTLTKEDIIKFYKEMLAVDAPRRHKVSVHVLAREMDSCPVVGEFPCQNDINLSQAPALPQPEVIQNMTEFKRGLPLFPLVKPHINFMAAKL
# [3] = biological target: T3, Ubiquitin-conjugating enzyme E2 N (Homo sapiens, UniProt P61088); format: functional
# T3 sequence (P61088 whole entry): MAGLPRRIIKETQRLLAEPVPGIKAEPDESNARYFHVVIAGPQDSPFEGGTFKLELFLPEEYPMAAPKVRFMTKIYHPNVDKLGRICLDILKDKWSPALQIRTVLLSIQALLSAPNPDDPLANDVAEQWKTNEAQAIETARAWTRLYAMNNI
# [4] = C. albicans growth with fluconazole, confirmation, fluorescence, retest (AID 2467); format: functional, cell-based
# HEK293 [5] = assay: HEK cell cytotoxicity by LDH release, dose response, cytotoxicity control for IDE activator project, fluorescence, HEK cells (AID 588440); format: functional, cell-based; conditions: Homo sapiens;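 also: cytotoxicity by LDH release measuring loss of membrane integrity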
# [6] = biological target: T3, Ubiquitin-conjugating enzyme E2 N; format: functional; remark: listed apart in the source
# [7] = biological target: T4, Apoptotic protease-activating factor 1 (Homo sapiens, UniProt O14727); format: functional
# T4 sequence (O14727 whole entry): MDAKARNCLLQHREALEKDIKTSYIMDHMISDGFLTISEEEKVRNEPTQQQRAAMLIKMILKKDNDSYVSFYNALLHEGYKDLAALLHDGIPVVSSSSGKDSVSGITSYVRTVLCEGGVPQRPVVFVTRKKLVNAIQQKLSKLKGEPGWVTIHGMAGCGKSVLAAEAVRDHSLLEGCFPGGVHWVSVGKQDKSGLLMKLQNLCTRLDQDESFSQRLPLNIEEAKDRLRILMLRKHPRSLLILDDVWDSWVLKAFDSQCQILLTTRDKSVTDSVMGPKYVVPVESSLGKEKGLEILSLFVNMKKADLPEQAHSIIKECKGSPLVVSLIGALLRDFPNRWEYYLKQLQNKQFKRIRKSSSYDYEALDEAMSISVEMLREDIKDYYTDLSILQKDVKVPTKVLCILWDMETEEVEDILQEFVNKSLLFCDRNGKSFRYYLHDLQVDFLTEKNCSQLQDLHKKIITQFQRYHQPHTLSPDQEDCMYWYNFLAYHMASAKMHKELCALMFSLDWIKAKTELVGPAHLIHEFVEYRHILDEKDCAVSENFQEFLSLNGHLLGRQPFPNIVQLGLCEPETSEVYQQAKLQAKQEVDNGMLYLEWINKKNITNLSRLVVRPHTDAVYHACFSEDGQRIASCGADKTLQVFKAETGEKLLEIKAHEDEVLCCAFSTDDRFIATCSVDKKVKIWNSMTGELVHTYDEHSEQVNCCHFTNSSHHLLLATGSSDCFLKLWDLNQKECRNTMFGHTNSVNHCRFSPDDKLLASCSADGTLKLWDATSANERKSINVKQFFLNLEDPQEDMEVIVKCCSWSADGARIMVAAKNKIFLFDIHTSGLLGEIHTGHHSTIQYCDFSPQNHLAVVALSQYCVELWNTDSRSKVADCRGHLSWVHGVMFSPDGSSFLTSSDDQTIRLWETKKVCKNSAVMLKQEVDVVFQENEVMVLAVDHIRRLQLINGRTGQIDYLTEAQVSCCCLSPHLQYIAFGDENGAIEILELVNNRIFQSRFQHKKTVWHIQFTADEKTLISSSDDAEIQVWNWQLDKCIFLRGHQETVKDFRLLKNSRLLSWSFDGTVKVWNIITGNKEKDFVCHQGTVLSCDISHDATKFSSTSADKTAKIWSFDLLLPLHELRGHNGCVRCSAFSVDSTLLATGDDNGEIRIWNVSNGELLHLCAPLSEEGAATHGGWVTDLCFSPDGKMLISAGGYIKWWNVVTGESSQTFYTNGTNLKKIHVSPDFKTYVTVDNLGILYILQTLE
# HEK293 [8] = assay: optical interference in Abeta FP readout, dose response, artefact control for IDE activator project, biochemical, fluorescence polarization (AID 588442); format: functional, cell-based; conditions: Homo sapiens
# Insulin-degrading enzyme [9] = biological target: T2, Insulin-degrading enzyme; assay: activators of endogenous IDE in HEK cells, dose response, cell-based, fluorescence polarization (AID 588439); format: functional
# [10] = NIH-3T3 fibroblast cytotoxicity, dose response, cytotoxicity control, cell-based, fluorescence, Alamar Blue, secondary assay (AID 2327); format: functional;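 also: NIH-3T3 mouse fibroblasts cultured with fluconazole at 8 µg/mL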
# Cytochrome P450 3A4 = Cytochrome P450 3A4 (Homo sapiens, UniProt P08684);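 also: CYP3A4 tested as one member of a cytochrome P450 panel screen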
# Protein Rev = biological target: T5, Protein Rev (Human immunodeficiency virus type 1 group M subtype B (isolate HXB2)(HIV-1), UniProt P04618); assay: inhibitors of Rev binding to RRE RNA, dose response, biochemical, fluorescence polarization, HIV-1 (AID 434976); parameters: species or system Human immunodeficiency virus 1
# T5 sequence (P04618 whole entry): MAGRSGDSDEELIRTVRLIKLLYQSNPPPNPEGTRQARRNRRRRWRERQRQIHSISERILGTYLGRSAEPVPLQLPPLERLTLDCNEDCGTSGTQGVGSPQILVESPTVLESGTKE
# CHO = assay: cytotoxicity in TLR9-MyD88 CHO cells, dose response, cytotoxicity control for TLR9-MyD88 binding inhibitor project, cell-based, luminescence (AID 588339); format: functional, hamster; conditions: Cricetulus griseus;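 also: CHO cells stably coexpressing TLR9 and MyD88 fusions from primary screen; compound exposure lasted 48 hours before viability readout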
# Beta Lactamase = Beta Lactamase (Pseudomonas aeruginosa, UniProt Q932Y6); assay: beta-lactamase reporter inhibitor potency, dose response, artefact control for TLR9-MyD88 binding inhibitor project, BLA reporter cells, FRET fluorescence (AID 588341); format: cell-based;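 also: cell based assay in CHO-K1 cells stably expressing beta-lactamase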
# [11] = biological target: T6, Female germline-specific tumor suppressor gld-1 (Caenorhabditis elegans, UniProt Q17339); assay: inhibitors of GLD-1 binding to TGE RNA, dose response, biochemical, fluorescence polarization, C. elegans (AID 2802);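 also: fluorescence polarization of labeled TGE RNA bound by purified gld-1 protein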
# T6 sequence (Q17339 whole entry): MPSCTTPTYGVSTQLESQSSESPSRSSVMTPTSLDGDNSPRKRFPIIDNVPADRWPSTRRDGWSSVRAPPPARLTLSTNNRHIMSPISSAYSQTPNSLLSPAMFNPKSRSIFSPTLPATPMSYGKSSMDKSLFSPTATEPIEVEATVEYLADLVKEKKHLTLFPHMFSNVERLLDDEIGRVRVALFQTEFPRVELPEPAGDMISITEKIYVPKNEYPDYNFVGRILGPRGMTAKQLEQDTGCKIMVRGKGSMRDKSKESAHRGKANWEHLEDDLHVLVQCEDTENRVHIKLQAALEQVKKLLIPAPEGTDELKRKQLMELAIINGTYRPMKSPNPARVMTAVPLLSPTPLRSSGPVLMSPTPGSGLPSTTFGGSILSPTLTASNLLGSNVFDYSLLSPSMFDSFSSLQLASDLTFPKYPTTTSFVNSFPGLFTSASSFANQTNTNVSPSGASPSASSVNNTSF
# Sequence of Activin receptor type-1 (Q04771 whole entry): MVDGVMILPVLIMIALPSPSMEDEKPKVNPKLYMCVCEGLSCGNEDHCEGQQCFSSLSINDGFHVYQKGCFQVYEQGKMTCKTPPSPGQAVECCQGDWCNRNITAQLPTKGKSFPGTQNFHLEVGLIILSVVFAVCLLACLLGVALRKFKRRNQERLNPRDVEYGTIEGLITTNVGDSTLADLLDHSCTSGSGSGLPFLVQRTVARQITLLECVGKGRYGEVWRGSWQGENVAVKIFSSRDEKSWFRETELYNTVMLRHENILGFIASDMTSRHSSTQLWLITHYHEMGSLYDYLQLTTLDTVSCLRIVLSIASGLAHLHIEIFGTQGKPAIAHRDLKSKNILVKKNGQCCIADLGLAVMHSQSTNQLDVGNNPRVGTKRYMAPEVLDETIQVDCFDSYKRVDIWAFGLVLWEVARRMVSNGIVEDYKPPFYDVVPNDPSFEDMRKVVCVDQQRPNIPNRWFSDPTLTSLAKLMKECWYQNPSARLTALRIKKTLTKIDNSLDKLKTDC
# Sequence of Beta Lactamase (Q932Y6 whole entry): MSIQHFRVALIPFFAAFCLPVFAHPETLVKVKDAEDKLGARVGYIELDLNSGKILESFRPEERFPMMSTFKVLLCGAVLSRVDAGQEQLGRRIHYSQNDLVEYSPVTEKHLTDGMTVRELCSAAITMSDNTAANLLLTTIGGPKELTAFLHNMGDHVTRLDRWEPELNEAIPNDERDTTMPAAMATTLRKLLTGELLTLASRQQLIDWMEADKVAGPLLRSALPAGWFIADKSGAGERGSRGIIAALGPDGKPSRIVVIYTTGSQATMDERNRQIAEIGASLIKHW
# Sequence of Cytochrome P450 3A4 (P08684 whole entry): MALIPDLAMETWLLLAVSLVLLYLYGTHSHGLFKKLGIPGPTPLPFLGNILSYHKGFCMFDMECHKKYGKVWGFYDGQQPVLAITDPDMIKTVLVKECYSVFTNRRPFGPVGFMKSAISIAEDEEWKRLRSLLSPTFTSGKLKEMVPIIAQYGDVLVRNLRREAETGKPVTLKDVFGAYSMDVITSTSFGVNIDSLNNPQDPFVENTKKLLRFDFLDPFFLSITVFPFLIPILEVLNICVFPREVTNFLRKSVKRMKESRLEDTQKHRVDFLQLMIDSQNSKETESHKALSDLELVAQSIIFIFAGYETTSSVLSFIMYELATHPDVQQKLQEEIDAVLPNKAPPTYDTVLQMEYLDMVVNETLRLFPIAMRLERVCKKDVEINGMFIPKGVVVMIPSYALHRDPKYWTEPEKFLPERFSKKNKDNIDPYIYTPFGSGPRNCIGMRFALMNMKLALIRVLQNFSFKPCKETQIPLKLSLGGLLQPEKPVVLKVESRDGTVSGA
smiles,measurement,setting,value
C=CCn1c(=O)c2cnc(Nc3ccc(N4CCN(C)CC4)cc3)nc2n1-c1cccc(C(C)(C)O)n1 [ADAVOSERTIB],Ki,Activin receptor type-1,> 3.98 µM (inactive)
NC1=NC[C@H](CC2CCCCC2)N1CCc1cc(C(F)(F)F)cc(C(F)(F)F)c1,IC50,Bcl-2-related protein A1,> 20 µM (inactive)
same,CC50,[1],26 µM (active)
same,EC50,Insulin-degrading enzyme [2],> 54.7 µM (inactive)
same,IC50,[3],14.6 µM (active)
same,EC50,[4],7.64 µM (active)
same,IC50,HEK293 [5],10.9 µM (inactive)
same,IC50,[6],17.2 µM (active)
same,IC50,[7],74.7 µM (active)
same,EC50,HEK293 [8],> 54.7 µM (inactive)
same,EC50,Insulin-degrading enzyme [9],9.93 µM (active)
same,EC50,[10],65.2 µM (active)
Cc1ccc(S(=O)(=O)N[C@H](C(=O)Oc2ccc3c(C(F)(F)F)cc(=O)oc3c2)c2ccccc2)cc1,AC50,Cytochrome P450 3A4,25.1 µM (inconclusive)
same,IC50,Protein Rev,26.9 µM (not active)
same,IC50,CHO,> 49.7 µM (inactive)
same,IC50,Beta Lactamase,3.73 µM (active)
same,IC50,[11],3.89 µM (active)
